# Reference: patent publication US4777290A, “10,10-dihydro-10-[(substituted-carbonyl)imino]-10-phe nyl-10H-phenoxaphosphines” (American Cyanamid Company, priority 1987, dated 1988)
# Where “and” joins values, the source holds several entries; their conditions need not be identical. Equal values may be shown once. Where a name gives a salt, the structure may show the parent alone.
# Assays:
# plasma renin activity = assay: Inhibition of evoked increase of plasma renin activity (PRA) in conscious rats; type: in vivo, male Wistar rats; conditions: oral, 30 min before provocative treatment, Wistar rats
# Description: Inhibition of evoked increase of plasma renin activity was determined by the following test.
# Compounds were tested for their ability to prevent drug-induced elevation of plasma renin activity (PRA) in concious, male Wistar rats (180-200 g, Charles River Lab.). PRA elevation was induced by a combined oral provocative treatment (C) of hydrochlorothiazide (10 mg/kg) and 1-(3-benzoyl-3-mercapto-2-methylpropionyl-L-proline, acetate (U.S. Pat. No. 4,226,775) (1 mg/kg), prepared by compounding in a mortar and pestle with preboiled 3% starch suspension. This treatment provided the daily maximum PRA. The daily minimum PRA was obtained from rats given oral starch suspension (S) alone. The magnitude of drug effect on PRA elevation was ascertained from rats pretreated orally with test agent (D), at the indicated doses, 30 minutes prior to administration of provocative treatment (C). The test agent was also compounded in preboiled 3% starch suspension. The dose volumes for both pretreatment and provocative treatment were 2 ml/kg. One hour after provocative treatment the rats were sacrificed by decapitation and the first 3 seconds of blood collected in two chilled vacutainer tubes containing 40 μl of 150 mg/ml tripotassium EDTA. The plasmas, which were obtained by centrifugation for 20 minutes at 4° C. and 3000×G, were incubated (one of each pair at 37° C., the other at 4° C.) at pH 6.8 in 50 mM phosphate buffer to produce angiotensin I. The incubates contained peptidase inhibitors to prevent angiotensin I degradation and the incubation buffer contained 1 mg/ml lysozyme (Sigma Grade III) used as an antiabsorbant. The incubates were diluted 20 fold in cold 100 mM tris buffer (pH adjusted to 7.4 with glacial acetic acid) also containing 1 mg/ml lysozyme, and then frozen. Diluted incubates were assayed within 3 days for angiotensin I content by radioimmunoassay according to a modification of the method of Haber, et al., J. Clin. Endocrin., 29, 1349-1355 (1969).
# PRA is calculated as follows:
# PRA([…])=PRA 37° C.-PRA 4° C.
# Percent inhibition of PRA elevation is calculated as follows: [formula]
# [1] = system: Spontaneously Hypertensive Rats; assay: Diuretic activity in spontaneously hypertensive rats; type: in vivo, male spontaneously hypertensive rats of Okamoto strain; conditions: 0-5 hour urine
# Description: The diuretic activity of the compounds of this invention was determined according to the method of Chan, P. S. and Poorvin, D., Sequential method for combined screening antihypertensive and diuretic agents in the same spontaneously hypertensive rat. Clinical and Experimental Hypertension, 1 (6), 817-830 (1979).
# Male spontaneously hypertensive rats of Okamoto strain, 16 weeks old, Taconic Farms Inc., were used in the test. These rats were kept on Purina laboratory chow and tap water ad libitum for 8 weeks before use. The male adult rats (about 300 g) were dosed by gavage with a test compound at 100 mg/kg at zero hour with the exception of one male adult rat in which the test compound dosage was 50 mg/kg. The test compound was suspended in 3% preboiled starch at 50 mg/ml. Each rat was put in metabolism cage. The 0-5 hour urine was collected and urinary sodium and potassium were determined using a Beckman Astra 4.
# Stability in solution = type: physicochemical
# [2] = 100 mg/kg by gavage, hydrobromide
# [3] = 100 mg/kg by gavage, hydrochloride
Structure (SMILES),Potassium (urinary) ([1]; 100 mg/kg by gavage) [MEQ/5 Hours],Sodium (urinary) ([1]; 100 mg/kg by gavage) [MEQ/5 Hours],Volume (urine) ([1]; 100 mg/kg by gavage) [mL],further results
"CCOC(=O)N=P1(c2ccccc2)c2ccccc2Oc2ccccc21 [10,10-Dihydro-10-[(ethoxycarbonyl)imino]-10-phenyl-10H-phenoxaphosphine]",0.49,2.20,19.0,"Percent Inhibition of Plasma Renin Elevation, Av. % Inhibition (plasma renin activity; 1 mg/kg): 33%; Percent Inhibition of Plasma Renin Elevation, Av. % Inhibition (plasma renin activity; 2 mg/kg): 54%; Percent Inhibition of Plasma Renin Elevation, Av. % Inhibition (plasma renin activity; 4 mg/kg): 78%; Percent Inhibition of Plasma Renin Elevation, Av. % Inhibition (plasma renin activity; 8 mg/kg): 91%; Percent Inhibition of Plasma Renin Elevation, Av. % Inhibition (plasma renin activity; 25 mg/kg): 84%"
"COC(=O)N=P1(c2ccccc2)c2ccccc2Oc2ccccc21 [10,10-Dihydro-10-[(methoxycarbonyl)imino]-10-phenyl-10H-phenoxaphosphine]",0.74,1.48,14.0,
"CC(C)OC(=O)N=P1(c2ccccc2)c2ccccc2Oc2ccccc21 [10,10-Dihydro-10-[[(1-methylethoxy)carbonyl]imino]-10-phenyl-10H-phenoxaphosphine]",0.66,2.30,16.5,
"CC(C)COC(=O)N=P1(c2ccccc2)c2ccccc2Oc2ccccc21 [10,10-Dihydro-10-[[(2-methylpropoxy)carbonyl]-imino]-10-phenyl-10H-phenoxaphosphine]",0.64,1.63,12.8,
"N=P1(c2ccccc2)c2ccccc2Oc2ccccc21 [10,10-Dihydro-10-imino-10-phenyl-10H-phenoxaphosphine, bis(t] [10,10-Dihydro-10-imino-10-phenyl-10H-phenoxaphosphine, bis(trifluoroacetate)]",0.66,1.16,12.5,
"N=P1(c2ccccc2)c2ccccc2Oc2ccccc21 [10,10-Dihydro-10-imino-10-phenyl-10H-phenoxaphosphine, hydrobromide]",,,,"Potassium (urinary) [1, 2]: 0.26 MEQ/5 Hours; Sodium (urinary) [1, 2]: 1.12 MEQ/5 Hours; Volume (urine) [1, 2]: 8.0 mL"
"N=P1(c2ccccc2)c2ccccc2Oc2ccccc21 [10,10-Dihydro-10-imino-10-phenyl-10H-phenoxaphosphine, hydrochloride]",,,,"Potassium (urinary) [1, 3]: 0.59 MEQ/5 Hours; Sodium (urinary) [1, 3]: 2.01 MEQ/5 Hours; Volume (urine) [1, 3]: 16.5 mL"
"N=P1(c2ccccc2)c2ccccc2Oc2ccccc21 [10,10-Dihydro-10-imino-10-phenyl-10H-phenoxaphosphine, sulfa] [10,10-Dihydro-10-imino-10-phenyl-10H-phenoxaphosphine, sulfate]",0.18,1.56,9.8,"Percent Inhibition of Plasma Renin Elevation, Av. % Inhibition (plasma renin activity; 1 mg/kg): 38%; Percent Inhibition of Plasma Renin Elevation, Av. % Inhibition (plasma renin activity; 4 mg/kg): 31% and 42%; Percent Inhibition of Plasma Renin Elevation, Av. % Inhibition (plasma renin activity; 8 mg/kg): 67%; stability in solution (Stability in solution): stable in solution"
"C=CCOC(=O)N=P1(c2ccccc2)c2ccccc2Oc2ccccc21 [10,10-Dihydro-10-phenyl-10-[[(2-propenyloxy)carbonyl]imino]-10H-phenoxaphosphine]",0.61,1.27,12.0,
"C#CCOC(=O)N=P1(c2ccccc2)c2ccccc2Oc2ccccc21 [10,10-Dihydro-10-phenyl-10-[[(2-propynyloxy)carbonyl]imino]-10H-phenoxaphosphine]",0.61,1.13,10.5,
"O=C(N=P1(c2ccccc2)c2ccccc2Oc2ccccc21)OCc1ccccn1 [10,10-Dihydro-10-phenyl-10-[[(2-pyridylmethoxy)carbonyl]imino]-10H-phenoxaphosphine]",,,,Potassium (urinary) ([1]; 50 mg/kg by gavage): 0.74 MEQ/5 Hours; Sodium (urinary) ([1]; 50 mg/kg by gavage): 1.26 MEQ/5 Hours; Volume (urine) ([1]; 50 mg/kg by gavage): 10.8 mL
"O=C(N=P1(c2ccccc2)c2ccccc2Oc2ccccc21)OCc1cccnc1 [10,10-Dihydro-10-phenyl-10-[[(3-pyridylmethoxy)carbonyl]imino]-10H-phenoxaphosphine]",0.59,2.61,20.5,
"O=C(N=P1(c2ccccc2)c2ccccc2Oc2ccccc21)OCc1ccccc1 [10,10-Dihydro-10-phenyl-10-[[(phenylmethoxy)carbonyl]imino]-10H-phenoxaphosphine]",0.56,1.32,12.3,
"O=C(N=P1(c2ccccc2)c2ccccc2Oc2ccccc21)OC1CCOC1 (stereo not drawn) [10,10-Dihydro-10-phenyl-10-[[[(tetrahydro-3-furanyl)-oxy]carbonyl]imino]-10H-phenoxaphosphine]",0.73,1.49,14.3,
"O=C(N=P1(c2ccccc2)c2ccccc2Oc2ccccc21)OCc1ccncc1 [10,10-dihydro-10-phenyl-10-[[(4-pyridylmethoxy)carbonyl]imino]-10H-phenoxaphosphine]",0.40,2.28,18.0,
"O=C(N=P1(c2ccccc2)c2ccccc2Oc2ccccc21)OC1CCCC1 [10-[[(Cyclopentyloxy)carbonyl]imino]-10,10-dihydro-10-phenyl-10H-phenoxaphosphine]",0.60,1.71,14.0,
"O=C(N=P1(c2ccccc2)c2ccccc2Oc2ccccc21)OCC1CC1 [10-[[(Cyclopropylmethoxy)carbonyl]imino]-10,10-dihydro-10-phenyl-10H-phenoxaphosphine]",0.75,1.41,10.8,
